Laboratory results as given in the supplement of paper PMC10307832.

Experiments:
Experiment in all cases: relative viability (nuclei count vs DMSO), 5 days (fraction); higher = more cells survive
Dinaciclib + Decitabine = compound: CCc1cnn2c(NCc3ccc[n+]([O-])c3)cc(N3CCCC[C@H]3CCO)nc12 [Dinaciclib] + Nc1ncn([C@H]2C[C@H](O)[C@@H](CO)O2)c(=O)n1 [Decitabine] (partner 2 µM)
In short: (§1)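 Each reported value is a median over duplicate plates. It expresses relative viability: treated-well nuclei count divided by vehicle-well nuclei count. Lung cancer cell lines in 1536-well plates were dosed by pin tool a day after seeding, alone with one drug or with a fixed anchor-drug dose plus five library-drug doses (not always all listed) in √10 steps, and nuclei were counted after 5 days.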

Dinaciclib + Foretinib = compound: CCc1cnn2c(NCc3ccc[n+]([O-])c3)cc(N3CCCC[C@H]3CCO)nc12 [Dinaciclib] + COc1cc2c(Oc3ccc(NC(=O)C4(C(=O)Nc5ccc(F)cc5)CC4)cc3F)ccnc2cc1OCCCN1CCOCC1 [Foretinib] (partner 0.25 µM)
In short: as §1

Dinaciclib + OSI-027 = compound: CCc1cnn2c(NCc3ccc[n+]([O-])c3)cc(N3CCCC[C@H]3CCO)nc12 [Dinaciclib] + COc1cccc2cc(-c3nc([C@H]4CC[C@H](C(=O)O)CC4)n4ncnc(N)c34)[nH]c12 [OSI-027] (partner 0.5 µM)
In short: as §1

Dinaciclib + Alpelisib = compound: CCc1cnn2c(NCc3ccc[n+]([O-])c3)cc(N3CCCC[C@H]3CCO)nc12 [Dinaciclib] + Cc1nc(NC(=O)N2CCC[C@H]2C(N)=O)sc1-c1ccnc(C(C)(C)C(F)(F)F)c1 [Alpelisib] (partner 2 µM)
In short: as §1

Dinaciclib + Luminespib = compound: CCc1cnn2c(NCc3ccc[n+]([O-])c3)cc(N3CCCC[C@H]3CCO)nc12 [Dinaciclib] + CCNC(=O)c1noc(-c2cc(C(C)C)c(O)cc2O)c1-c1ccc(CN2CCOCC2)cc1 [Luminespib] (partner 0.01 µM)
In short: as §1

Row | Cell Line | relative viability (Dinaciclib + Decitabine; first compound 0.009487 µM) | relative viability (Dinaciclib + Decitabine; first compound 0.03 µM) | relative viability (Dinaciclib + Decitabine; first compound 0.09487 µM) | relative viability (Dinaciclib + Decitabine; first compound 0.3 µM) | relative viability (Dinaciclib + Foretinib; first compound 0.009487 µM) | relative viability (Dinaciclib + Foretinib; first compound 0.03 µM) | relative viability (Dinaciclib + Foretinib; first compound 0.09487 µM) | relative viability (Dinaciclib + Foretinib; first compound 0.3 µM) | relative viability (Dinaciclib + OSI-027; first compound 0.009487 µM) | relative viability (Dinaciclib + OSI-027; first compound 0.03 µM) | relative viability (Dinaciclib + OSI-027; first compound 0.09487 µM) | relative viability (Dinaciclib + OSI-027; first compound 0.3 µM) | relative viability (Dinaciclib + Alpelisib; first compound 0.009487 µM) | relative viability (Dinaciclib + Alpelisib; first compound 0.03 µM) | relative viability (Dinaciclib + Alpelisib; first compound 0.09487 µM) | relative viability (Dinaciclib + Alpelisib; first compound 0.3 µM) | relative viability (Dinaciclib + Luminespib; first compound 0.009487 µM) | relative viability (Dinaciclib + Luminespib; first compound 0.03 µM) | relative viability (Dinaciclib + Luminespib; first compound 0.09487 µM) | relative viability (Dinaciclib + Luminespib; first compound 0.3 µM)
1 | A-427 | 0.508 | 0.153 | 0.119 | 0.116 | 0.955 | 0.117 | 0.0874 | 0.0871 | 0.385 | 0.143 | 0.0922 | 0.0796 | 1.11 | 0.138 | 0.0763 | 0.067 | 0.554 | 0.0941 | 0.0692 | 0.0782
2 | IA-LM | – | – | – | – | 1.01 | 0.0352 | 0.0148 | 0.0125 | – | – | – | – | 0.669 | 0.0488 | 0.0282 | 0.0261 | – | – | – | –
3 | ChaGo-K-1 | 0.531 | 0.287 | 0.138 | 0.128 | 0.918 | 0.245 | 0.12 | 0.14 | 0.499 | 0.186 | 0.128 | 0.119 | – | – | – | – | 0.342 | 0.182 | 0.123 | 0.0984
4 | SK-MES-1 | 0.362 | 0.157 | 0.156 | 0.166 | 0.962 | 0.189 | 0.135 | 0.137 | 0.559 | 0.13 | 0.136 | 0.149 | 0.757 | 0.618 | 0.119 | 0.117 | 0.428 | 0.131 | 0.167 | 0.152
5 | LCLC-97TM1 | 0.167 | 0.0798 | 0.0518 | 0.0627 | 0.705 | 0.14 | 0.132 | 0.107 | 0.298 | 0.167 | 0.122 | 0.113 | 0.197 | 0.129 | 0.121 | 0.107 | 0.459 | 0.111 | 0.116 | 0.109
6 | NCI-H2170 | 0.471 | 0.212 | 0.141 | 0.146 | 0.901 | 0.281 | 0.189 | 0.194 | 0.741 | 0.156 | 0.152 | 0.14 | 0.646 | 0.166 | 0.162 | 0.198 | 0.608 | 0.142 | 0.142 | 0.146
7 | NCI-H1993 | 0.702 | 0.462 | 0.445 | 0.406 | 0.922 | 0.584 | 0.65 | 0.544 | 0.538 | 0.57 | 0.625 | 0.6 | 0.671 | 0.683 | – | 0.642 | 0.723 | 0.472 | 0.53 | 0.474
8 | NCI-H460 | 0.232 | 0.0239 | 0.0139 | 0.0224 | 0.803 | 0.0417 | 0.0257 | 0.0233 | 0.392 | 0.0364 | 0.0185 | 0.0206 | 0.383 | 0.0074 | 0.0122 | 0.0084 | 0.031 | 0.015 | 0.0141 | 0.0129
9 | NCI-H1975 | 0.327 | 0.176 | 0.135 | 0.143 | 0.868 | 0.185 | 0.107 | 0.099 | 0.783 | 0.347 | 0.0912 | 0.0908 | 0.473 | 0.118 | 0.112 | 0.147 | 0.237 | 0.145 | 0.12 | 0.135
